From the PolyMetriX glass transition set come the findings set out here.

With `*/C(CC)=C(/*)c1ccccc1` (repeat unit), the glass transition temperature turned out to be 200.00 °C.

Compound `*/C=C/c1cccc(OC(=O)CCCCCCCCC(=O)Oc2cccc(-c3nnc(*)s3)c2)c1` (repeat unit) came in with a glass transition temperature of 41.00 °C.

`*CC#C/C(C#CCOC(=O)CCCCCCCCC(=O)O*)=C\c1ccc(C#Cc2ccc(C=C(C#Cc3ccccc3)C#Cc3ccccc3)cc2)cc1` (repeat unit) registered a glass transition temperature of 60.00 °C.

`*CC#CCOC(=O)CCCCCCCCCCC(=O)O*` (repeat unit) showed a glass transition temperature of -27.00 °C.

On to `*CCCCCC(=O)Nc1ccc(Cc2ccc(NC(=O)CCCCCN3C(=O)c4ccc(C(=O)c5ccc6c(c5)C(=O)N(*)C6=O)cc4C3=O)cc2)cc1` (repeat unit), for which the glass transition temperature is 187.00 °C.

Compound `*CCCCCC(=O)Nc1ccc(NC(=O)CCCCCN2C(=O)c3ccc(C(=O)c4ccc5c(c4)C(=O)N(*)C5=O)cc3C2=O)cc1` (repeat unit) registered a glass transition temperature of 200.00 °C.

In the case of `*CCCCCC(=O)Oc1ccc(C2(c3ccc(OC(=O)c4ccc5c(c4)C(=O)N(*)C5=O)cc3)CCCCC2)cc1` (repeat unit), the glass transition temperature turned out to be 122.00 °C.

With `*CCCCCC(=O)Oc1ccc(OC(=O)c2ccc3c(c2)C(=O)N(*)C3=O)cc1` (repeat unit), the glass transition temperature was 89.00 °C.

Regarding `*CCCCCC(=O)Oc1ccc2ccc(OC(=O)c3ccc4c(c3)C(=O)N(*)C4=O)cc2c1` (repeat unit), the glass transition temperature was found to be 113.00 °C.

The compound `*CCCCCCC(=O)N*` (repeat unit) came in with a glass transition temperature of 52.00 °C.

The compound `*CCCCCCC(=O)O*` (repeat unit) returned a glass transition temperature of -14.00 °C.

For `*CCCCCCCC(=O)OCC1COC(*)O1` (repeat unit), the glass transition temperature was -23.00 °C.

`*CCCCCCCC(c1ccc(O)cc1)C(*)c1ccc(O)cc1C` (repeat unit): the glass transition temperature turned out to be 4.00 °C.

`*CCCCCCCCC(*)Cl` (repeat unit) returned a glass transition temperature of -33.00 °C.

As to `*CCCCCCCCC(=O)N*` (repeat unit), the glass transition temperature was found to be 48.00 °C.

With `*CCCCCCCCCC(c1ccc(O)cc1)C(*)c1ccc(O)cc1C` (repeat unit), the glass transition temperature was -1.00 °C.

`*CCCCCCCCCCC(=O)N*` (repeat unit) returned a glass transition temperature of 46.00 °C.

Consider `*CCCCCCCCCCC(=O)Nc1ccc(NC(=O)CCCCCCCCCCN2C(=O)c3ccc(C(=O)c4ccc5c(c4)C(=O)N(*)C5=O)cc3C2=O)cc1` (repeat unit), for which the glass transition temperature is 125.00 °C.

On to `*CCCCCCCCCCC(=O)Nc1ccc(Oc2ccc(Oc3ccc(NC(=O)CCCCCCCCCCN4C(=O)c5ccc(C(=O)c6ccc7c(c6)C(=O)N(*)C7=O)cc5C4=O)cc3)cc2)cc1` (repeat unit), for which the glass transition temperature turned out to be 122.00 °C.

The compound `*CCCCCCCCCCC(=O)O*` (repeat unit) showed a glass transition temperature of -46.0 °C.

`*CCCCCCCCCCCC(=O)Oc1ccc(C2(c3ccc(OC(=O)c4ccc5c(c4)C(=O)N(*)C5=O)cc3)CCCCC2)cc1` (repeat unit) displayed a glass transition temperature of 96.00 °C.

As for `*CCCCCCCCCCCC(=O)Oc1ccc2cc(OC(=O)CCCCCCCCCCCn3c(=O)c4cc5c(=O)n(*)c(=O)c5cc4c3=O)ccc2c1` (repeat unit), the glass transition temperature came out at 62.00 °C.

For `*CCCCCCCCCCCC(=O)Oc1ccc2ccc(OC(=O)c3ccc4c(c3)C(=O)N(*)C4=O)cc2c1` (repeat unit), the glass transition temperature stood at 98.00 °C.

`*CCCCCCCCCCCC(c1ccc(O)cc1)C(*)c1ccc(O)cc1C` (repeat unit) came in with a glass transition temperature of 4.00 °C.

In turn, `*CCCCCCCCCCCCCCCCCCNC(=O)CCCCCCCCCCCCCCCCC(=O)N*` (repeat unit) showed a glass transition temperature of 50.00 °C.

On to `*CCCCCCCCCCCCCNC(=O)CCCCCCCCCCCC(=O)N*` (repeat unit), for which the glass transition temperature amounted to 56.50 °C.

As to `*CCCCCCCCCCCCNC(=O)CCCCCCCCCCCCCCCCCCC(=O)N*` (repeat unit), the glass transition temperature stood at 221.60 °C.

Compound `*CCCCCCCCCCCNC(=O)CCCCCCCCC(=O)N*` (repeat unit) gave a glass transition temperature of 40.00 °C.

`*CCCCCCCCCCCNC(=O)CCCCCCCCCCC(=O)N*` (repeat unit) showed a glass transition temperature of 39.00 °C.

`*CCCCCCCCCCNC(=O)CCCCCCCCCCCCCCC(=O)N*` (repeat unit) showed a glass transition temperature of 45.00 °C.

The compound `*CCCCCCCCNC(=O)CCCCCCCCC(=O)N*` (repeat unit) displayed a glass transition temperature of 54.00 °C.

The compound `*CCCCCCCCNC(=O)CCCCCCCCCCC(=O)N*` (repeat unit) gave a glass transition temperature of 50.00 °C.

For `*CCCCCCCCc1nc2cc(NC(=O)CCCCCCCCC(=O)Nc3ccc4oc(*)nc4c3)ccc2o1` (repeat unit), the glass transition temperature was 93.00 °C.

`*CCCCCCN(C(=O)C(F)(F)C(F)(F)C(F)(F)C(=O)N(*)C(C)C)C(C)C` (repeat unit) had a glass transition temperature of 142.50 °C.

In turn, `*CCCCCCN(C)C(=O)CCC(=O)N(*)C` (repeat unit) displayed a glass transition temperature of 7.50 °C.

Consider `*CCCCCCNC(=O)CCCCCCCCCCCCCCC(=O)N*` (repeat unit), for which the glass transition temperature stood at 40.00 °C.

`*CCCCCCOC(=O)NNC(=O)CCCCCCCCC(=O)NNC(=O)O*` (repeat unit) came in with a glass transition temperature of 45.00 °C.

In turn, `*CCCCOC(=O)CCCCCCCC(=O)O*` (repeat unit) registered a glass transition temperature of -62.50 °C.

As for `*CCCOC(=O)NNC(=O)CCCCCCCCC(=O)NNC(=O)O*` (repeat unit), the glass transition temperature was 22.00 °C.

Take `*CCOC(=O)CCCCCCCC(=O)O*` (repeat unit): the glass transition temperature was -45.00 °C.

The compound `*CCOC(=O)NNC(=O)CCCCCCCCC(=O)NNC(=O)O*` (repeat unit) came in with a glass transition temperature of 63.00 °C.

As to `*CCOCCOC(=O)CCCCCCCCCCC(=O)O*` (repeat unit), the glass transition temperature is -71.00 °C.

Consider `*CCc1ccc(CCNC(=O)CCCCCCCCC(=O)N*)cc1` (repeat unit), for which the glass transition temperature stood at 105.00 °C.

`*CCc1ccc(CCNC(=O)CCCCCCCCCC(=O)N*)cc1` (repeat unit) displayed a glass transition temperature of 96.00 °C.

In turn, `*CCc1ccc(CCNC(=O)CCCCCCCCCCCCC(=O)N*)cc1` (repeat unit) returned a glass transition temperature of 93.00 °C.

In turn, `*Cc1ccc(CNC(=O)CCCCCCCCCCCCCC(=O)N*)cc1` (repeat unit) yielded a glass transition temperature of 90.00 °C.

`*NC1CCC(CC2CCC(NC(=O)CCCCCCCCCCC(*)=O)CC2)CC1` (repeat unit): the glass transition temperature was 142.00 °C.

For the compound `*NC1CCC(CCC2CCC(NC(=O)CCCCCCCCC(*)=O)CC2)CC1` (repeat unit), the glass transition temperature is 116.00 °C.

The compound `*Nc1ccc(Cc2ccc(NC(=O)CCCCCCCC(*)=O)cc2)cc1` (repeat unit) gave a glass transition temperature of 140.00 °C.

`*Nc1ccc(Cc2ccc(NC(=O)c3cc(NC(=O)C(C(C)CC)N4C(=O)c5ccccc5C4=O)cc(C(*)=O)c3)cc2)cc1` (repeat unit) came in with a glass transition temperature of 195.00 °C.

The compound `*Nc1ccc(Cc2ccc(NC(=O)c3cc(NC(=O)CCCCCN4C(=O)c5ccccc5C4=O)cc(C(*)=O)c3)cc2)cc1` (repeat unit) had a glass transition temperature of 195.00 °C.

On to `*Nc1ccc(Cc2ccc(NC(=O)c3cc(NC(=O)c4ccccc4)cc(C(*)=O)c3)cc2)cc1` (repeat unit), for which the glass transition temperature was found to be 285.00 °C.

As for `*Nc1ccc(NC(=O)c2cc(-c3ccc(C(=O)OCC)c(C(*)=O)c3)ccc2C(=O)OCC)cc1` (repeat unit), the glass transition temperature stood at 231.70 °C.

For the compound `*Nc1cccc(NC(=O)CCCCCCCCC(*)=O)c1` (repeat unit), the glass transition temperature worked out at 110.00 °C.

As to `*O[Si](C)(C)CCCCCCCC[Si](*)(C)C` (repeat unit), the glass transition temperature is -88.00 °C.

As to `*O[Si](C)(C)CCCCCC[Si](*)(C)C` (repeat unit), the glass transition temperature is -90.00 °C.

The compound `*Oc1ccc(C(=O)c2cccc(NC(=O)CCCCCCCCC(=O)Nc3ccc(C(=O)c4ccc(*)cc4)cc3)c2)cc1` (repeat unit) showed a glass transition temperature of 148.00 °C.

The compound `*Oc1ccc(C2(c3ccc(OC(=O)CCCCCCCCC(*)=O)cc3)c3ccccc3Cc3ccccc32)cc1` (repeat unit) yielded a glass transition temperature of 134.00 °C.

`*Oc1ccc(C2(c3ccc(OC(=O)CCCCCCCCCCC(*)=O)cc3)c3ccccc3-c3ccccc32)cc1` (repeat unit) displayed a glass transition temperature of 117.00 °C.

Consider `*Oc1ccc(NC(=O)CCCCCCCCCC(=O)Nc2ccc(*)cc2)cc1` (repeat unit), for which the glass transition temperature stood at 150.00 °C.

Consider `*Oc1cccc(NC(=O)CCCCCCCC(=O)Nc2ccc(*)cc2)c1` (repeat unit), for which the glass transition temperature came out at 120.00 °C.

`*Oc1cccc(NC(=O)CCCCCCCCCCC(=O)Nc2ccc(*)cc2)c1` (repeat unit) yielded a glass transition temperature of 110.00 °C.

`*c1ccc(NC(=O)CCCCCCCCC(=O)Nc2ccc(S(*)(=O)=O)cc2)cc1` (repeat unit) showed a glass transition temperature of 72.34 °C.

In turn, `*c1ccc(NC(=O)CCCCCCCCCCC(=O)Nc2ccc(S(*)(=O)=O)cc2)cc1` (repeat unit) showed a glass transition temperature of 160.00 °C.

`*c1ccc(OC(=O)CCCCCCCCCCCCCCCCCCCCC(=O)Oc2ccc(N3C(=O)c4ccc(-c5ccc6c(c5)C(=O)N(*)C6=O)cc4C3=O)cc2)cc1` (repeat unit) yielded a glass transition temperature of 140.00 °C.

Compound `*c1ccc2c(c1)C(=O)N(c1ccc(Oc3ccc(N4C(=O)c5ccc(C(C)(C)CCCCCCCCC(*)(C)C)cc5C4=O)cc3)cc1)C2=O` (repeat unit) returned a glass transition temperature of 123.7 °C.

`*c1cccc(NC(=O)CCCCCCCC(=O)Nc2cccc(S(*)(=O)=O)c2)c1` (repeat unit) showed a glass transition temperature of 125.00 °C.

Compound `*c1cccc(NC(=O)CCCCCCCCC(=O)Nc2cccc(S(*)(=O)=O)c2)c1` (repeat unit) registered a glass transition temperature of 112.00 °C.

As to `*c1ncnc(N(CCCCCCCCCCN(*)c2ccccc2)c2ccccc2)n1` (repeat unit), the glass transition temperature came to 55.00 °C.
